Values after ≈ are worked out from the molar mass of the structure shown.
How the values were obtained:
[1] = Hemolytic activity in sheep erythrocytes; assay type: ADME, cell-based, Ovis aries, Erythrocyte
[2] = Therapeutic index, ratio of HD100 for hemolytic activity in human erythrocytes to MIC against Pseudomonas aeruginosa ATCC 27853; assay type: toxicity, cell-based; settings: read-out: TI
[3] = Therapeutic index, ratio of HD100 for hemolytic activity in human erythrocytes to MIC against Escherichia coli ATCC 25922; assay type: toxicity, cell-based; settings: read-out: TI
[4] = test system: Staphylococcus aureus; test: Antibacterial activity against Staphylococcus aureus ATCC 29213; assay type: functional
[5] = test system: Erythrocyte; test: Haemolytic activity in human erythrocytes; assay type: ADME, cell-based; settings: erythrocyte
[6] = test system: Enterococcus faecalis; test: Antibacterial activity against Enterococcus faecalis ATCC 29212; assay type: functional
[7] = test system: Pseudomonas aeruginosa; test: Antibacterial activity against Pseudomonas aeruginosa ATCC 27853; assay type: functional
[8] = test system: Escherichia coli; test: Antibacterial activity against Escherichia coli ATCC 25922; assay type: functional
[9] = Therapeutic index, ratio of HD100 for hemolytic activity in human erythrocytes to MIC against Staphylococcus aureus ATCC 29213; assay type: toxicity, cell-based; settings: read-out: TI
[10] = Therapeutic index, ratio of HD100 for hemolytic activity in human erythrocytes to MIC against Enterococcus faecalis ATCC 29212; assay type: toxicity, cell-based; settings: read-out: TI
[11] = Haemolytic activity in human RBC after 4 hrs; assay type: ADME, cell-based, Erythrocyte; settings: human red blood cells
[12] = test system: Pseudomonas aeruginosa; test: Antibacterial activity against Pseudomonas aeruginosa NBRC 3080; assay type: functional
[13] = test system: Priestia megaterium; test: Antibacterial activity against Bacillus megaterium ATCC 19213; assay type: functional
[14] = test system: Escherichia coli; test: Antibacterial activity against Escherichia coli NBRC 12734; assay type: functional
[15] = test system: Bacillus subtilis; test: Antibacterial activity against Bacillus subtilis NBRC 3513; assay type: functional
[16] = test system: Staphylococcus aureus; test: Antibacterial activity against Staphylococcus aureus NBRC 12732; assay type: functional
[17] = test system: Staphylococcus aureus; test: Antibacterial activity against multidrug-resistant Staphylococcus aureus ATCC BAA-44 after overnight incubation by broth microdilution method; assay type: functional
[18] = test system: Staphylococcus aureus; test: Antibacterial activity against vancomycin-resistant Staphylococcus aureus Mu50/ATCC 700699 after overnight incubation by broth microdilution method; assay type: functional
[19] = Haemolytic activity in human RBC incubated for 1 hr; assay type: ADME, cell-based, Erythrocyte; settings: human red blood cells
[20] = test system: Staphylococcus epidermidis; test: Antibacterial activity against Staphylococcus epidermidis ATCC 27626 after overnight incubation by broth microdilution method; assay type: functional
[21] = test system: Klebsiella pneumoniae; test: Antibacterial activity against Klebsiella pneumonia K6 ATCC 700603 after overnight incubation by broth microdilution method; assay type: functional; settings: 700603 K6
[22] = test system: Escherichia coli; test: Antibacterial activity against Escherichia coli K-12 ATCC 29181 after overnight incubation by broth microdilution method; assay type: functional
[23] = test system: Salmonella; test: Antibacterial activity against Salmonella after overnight incubation by broth microdilution method; assay type: functional

Compound: NCCC[C@@H]1NC(=O)[C@H](CCCN)NC(=O)[C@@H]2CCCN2C(=O)[C@@H](Cc2ccccc2)NC(=O)[C@H](CCCN)NC(=O)[C@H](CCCN)NC(=O)[C@H](CCCN)NC(=O)[C@@H]2CCCN2C(=O)[C@@H](Cc2ccccc2)NC(=O)[C@H](CCCN)NC1=O [listing 1 of 2 here]
- HC50 [1]: > 200 µg/mL

Compound: CC(C)C[C@@H]1NC(=O)[C@H](CCCN)NC(=O)[C@H](C(C)C)NC(=O)[C@@H]2CCCN2C(=O)[C@@H](Cc2ccccc2)NC(=O)[C@H](CC(C)C)NC(=O)[C@H](CCCN)NC(=O)[C@H](C(C)C)NC(=O)[C@H](CCCN)NC(=O)[C@H](CC(C)C)NC(=O)[C@H]2CC[C@H](OCc3ccccc3)[C@@H](CNC(=O)[C@H](C(C)C)NC(=O)[C@H](CCCN)NC1=O)O2
- selectivity ratio [2]: 7.8
- selectivity ratio [3]: 3.9
- MIC [4]: 4 µg/mL (≈ 2.52 µM)
- Activity [5]: 62.5 µg/mL
- MIC [6]: 8 µg/mL (≈ 5.05 µM)
- MIC [7]: 8 µg/mL (≈ 5.05 µM)
- MIC [8]: 16 µg/mL (≈ 10.1 µM)
- selectivity ratio [9]: 15.6
- selectivity ratio [10]: 7.8

Compound: NCCC[C@@H]1NC(=O)[C@H](C23CC4CC(CC(C4)C2)C3)NC(=O)[C@@H]2CCCN2C(=O)[C@@H](Cc2ccccc2)NC(=O)[C@H](C23CC4CC(CC(C4)C2)C3)NC(=O)[C@H](CCCN)NC(=O)[C@H](C23CC4CC(CC(C4)C2)C3)NC(=O)[C@@H]2CCCN2C(=O)[C@@H](Cc2ccccc2)NC(=O)[C@H](C23CC4CC(CC(C4)C2)C3)NC1=O
- HC50 at 4 h [11]: 7.55 µg/mL

Compound: NCCC[C@@H]1NC(=O)[C@H](C23CC4CC(CC(C4)C2)C3)NC(=O)[C@H](CCCN)NC(=O)[C@@H]2CCCN2C(=O)[C@@H](Cc2ccccc2)NC(=O)[C@H](CCCN)NC(=O)[C@H](C23CC4CC(CC(C4)C2)C3)NC(=O)[C@H](CCCN)NC(=O)[C@@H]2CCCN2C(=O)[C@@H](Cc2ccccc2)NC1=O
- HC50 at 4 h [11]: 107 µg/mL

Compound: NCCC[C@@H]1NC(=O)[C@H](CCCN)NC(=O)[C@@H]2CCCN2C(=O)[C@@H](Cc2ccccc2)NC(=O)[C@H](CCCN)NC(=O)[C@H](CCCN)NC(=O)[C@H](CCCN)NC(=O)[C@@H]2CCCN2C(=O)[C@@H](Cc2ccccc2)NC(=O)[C@H](CCCN)NC1=O [listing 2 of 2 here]
- MIC [12]: > 100 µg/mL
- MIC [13]: 12.5 µg/mL (≈ 10.7 µM)
- MIC [14]: > 100 µg/mL
- MIC [15]: 12.5 µg/mL (≈ 10.7 µM)
- MIC [16]: 50 µg/mL (≈ 42.6 µM)

Compound: CC(C)C[C@@H]1NC(=O)[C@H](CCCN)NC(=O)[C@H](C(C)C)NC(=O)[C@H](C)N(C)C(=O)[C@@H](Cc2ccccc2)NC(=O)[C@H](C)N(C)C(=O)[C@@H](CCCN)NC(=O)[C@H](C(C)C)NC(=O)[C@@H]2CCCN2C(=O)[C@@H](Cc2ccccc2)NC1=O
- MIC [17]: 7 µg/mL (≈ 6.36 µM)
- MIC [18]: 3.5 µg/mL (≈ 3.18 µM)
- HC50 at 1 h [19]: 69.2 µg/mL
- MIC [20]: 1.8 µg/mL (≈ 1.63 µM)
- MIC [21]: 7 µg/mL (≈ 6.36 µM)
- MIC [22]: 28 µg/mL (≈ 25.4 µM)
- MIC [23]: 28 µg/mL (≈ 25.4 µM)
